The record followed here is article PMC8062851, “2-Methoxyestradiol and its derivatives inhibit store-operated Ca^2+ entry in T cells: Identification of a new and potent inhibitor” (Biochimica et Biophysica Acta. Molecular Cell Research, 2021).

“Also recorded” adds a separate entry of the source.

Assay [1] concerns Mn2+ entry into Jurkat T cells. The assay can be described thus: Mn2+ quenching of Fura2 after store depletion in Jurkat T cells. The note with it: store depletion by thapsigargin, 10 μM. Format: cell-based, human. The method, then:
Mn^2+ quenching of Fura2 was used to analyze influx of divalent cations into Jurkat T cells. Like for Ca^2+ measurements, 10^6 loaded Jurkat T-lymphocytes were pelleted and Ca^2+ buffer was exchanged for nominal Ca^2+ free buffer (see above). Instead of Ca^2+, Mn^2+ was added 1220 s after the start of the measurement. To investigate Mn^2+ quenching independently of any effects of Ca^2+, Fura2 was excited at its isosbestic point, which was experimentally determined to be 357 nm. The emission wavelength was set to 495 nm. In contrast to the Ca^2+ measurement experiments, these measurements were not calibrated.
For quantitative analysis, the velocity of quenching was calculated as the initial slope. After Mn^2+ addition, there was a very fast drop in Fura2 fluorescence in all experiments. This drop lasted for about 10 s and was probably due to quenching of extracellular Fura2. […]
y0 is the fluorescence at the start of the decay, P is the theoretical fluorescence at the end of the decay at infinite times, K is the rate constant, and x is the time. […]
The fluorescence before Mn^2+ addition was fitted to a straight line using the following equation:(4) y’=m·x+c
m is the slope, x is the time and c is the y-intercept. […] So the initial slope (si) after Mn^2+ addition was calculated using the following equation:(5) si=(y0–P)*(-K)*e(-K*1230s)–m

Assay [2] relates to IP3 receptors. The assay can be described thus: IP3-evoked Ca2+ release in permeabilized Jurkat T cells. The note with it: 2 μM IP3. It is filed as cell-based, human. The procedure:
3 ∗ 10^7 Jurkat T-lymphocytes per measurement were centrifuged at 450 ×g for 5 min at room temperature. The pellet was rinsed twice, each time using 10 ml permeabilization buffer 1 (120 mM KCl, 10 mM NaCl, 1.2 mM MgCl2, 0.533 mM CaCl2, 1 mM EGTA and 10 mM HEPES, pH 7.2 (KOH), sterile filtered). Subsequently, the pellet was resuspended in 2 ml permeabilization buffer 1 containing 80 μg/ml saponin (Fluka) and the cells were incubated for 10 min at 37 °C. Subsequently, the cells were centrifuged at 450 ×g for 5 min at room temperature and the cell pellet was washed once in 10 ml permeabilization buffer 2 (120 mM KCl, 10 mM NaCl, 1.2 mM MgCl2 and 10 mM HEPES, pH 7.2 (KOH), sterile filtered). Finally, the cells were taken up in 1 ml permeabilization buffer 2, placed into a cuvette and measured at the fluorescence spectrophotometer. Before the start of the measurement, 0.5 μl of 1 mM Fura2 free acid (dissolved in pure water, final concentration: 0.5 μM), 5 μl of 5 mg/ml creatinkinase (dissolved in permeabilization buffer 2, final concentration: 25 μg/ml, 20 U/ml, Roche) and 10 μl of 2 M creatin phosphate (dissolved in permeabilization buffer 2, final concentration: 20 mM, Calbiochem) were added. Fura2 was used to measure the Ca^2+ concentration and creatinkinase and creatin phosphate were used as ATP-regenerating system. The measurement was controlled by FL Solutions (Version 4.1, Hitachi High-Technologies Corporation). Fura2 was alternatively excited every 2 s at 340 ± 5 nm and 380 ± 5 nm, each 400 ms apart. Fluorescence intensity was measured at an emission wavelength of 495 ± 5 nm for both excitation wavelengths. […] Ca^2+ concentrations were calculated according to Grynkiewicz et al. as described earlier in Section 2.4.
As a quantitative read-out for inhibition of IP3 receptors, the peak [Ca^2+] after IP3 addition was subtracted from the mean [Ca^2+] between 25 and 75 s before IP3 addition (dPeak). […] The rate constant K of the fitted data was used as a quantitative read-out for SERCA pump activity and its inhibition.

In the case of `CCc1cc2c(cc1OS(N)(=O)=O)CC[C@@H]1[C@@H]2CC[C@]2(C)[C@@H](CC#N)CC[C@@H]12` [STX564, 2-ethyl-3-sulfamoyloxy-17β-cyanomethylestra-1,3,5(10)-triene], the “antagonism of Mn2+ entry (Mn2+ quenching of Fura2)” value in assay [1] is given as “almost fully”. Further, the “effect on IP3-evoked Ca2+ release” value in assay [2] is “Neither STX564 nor Synta66 affected IP3-evoked Ca^2+ release significantly; also recorded: did not inhibit the Ca^2+ release by IP3”.
